Assays:
[1] = system: MODE-K cells; assay: CD1d-restricted IL-10 production in MODE-K:NKT cell hybridoma co-culture; type: cell-based, mouse; conditions: for effect of the supplement on IEC responses to oxazolone (CD1d-restricted IL-10 production): tryptophan-deficient media, oxazolone stimulation
[2] = system: MODE-K cells; assay: Relative transcript abundance of target genes in MODE-K cells conditioned with compounds; conditions: for Mttp transcripts / Ido1 transcripts: MODE-K cells conditioned with compound, normalized to β-actin
Source text: 4-ethoxymethylene-2-phenyl-2-oxazol-5-one, (referred to as oxazolone, FIG. 1A) has been widely utilized in models of contact hypersensitivity and when applied to the mucosa has been proposed to cause colitis through its properties as a hapten (Gorbachev and Fairchild 2001). However to date there is limited evidence for hapten-specific antibody production or responses following topical oxazolone sensitization or hapten modified autologous proteins or luminal antigens identified at mucosal sites (Singleton et al. 2016, Yanaba et al. 2008, Wirtz et al. 2007). […] It was then determined whether oxazolone could affect the expression of these transcripts in the intestinal epithelium in a cell intrinsic manner by directly stimulating an immortalized intestinal epithelial cell line (IEC) derived from mouse small intestine, MODE-K, with oxazolone.
To test this, a systematic in vitro system was devised to assess transcriptional and CD1d-restricted responses in IECs in response to stimulation with dietary OxC structures, including 2,4,5-trimethyl-2,5-dihydro-1,3-oxazole (referred to as TMO, FIG. 1A) found in coffee, peanuts, meats and utilized as a food additive, which lacks the 2-phenyl ring, 5-ketone, and 4-ethoxymethylene present in oxazolone (Vitzthum et al. 1975, Stoffesima et al. 1968, Lee et al. 1981, Chang et al. 1968, Ho and Hartman 1968).

[3] = system: IECs; assay: In vitro system to assess transcriptional and CD1d-restricted responses in IECs (FIG. 13 summary); type: cell-based
[4] = target: T1, AhR (Homo sapiens, UniProt P35869); conditions: Wambaugh et al. 2014, Dierickx 2004; cited from earlier work
T1 sequence (P35869 11-848): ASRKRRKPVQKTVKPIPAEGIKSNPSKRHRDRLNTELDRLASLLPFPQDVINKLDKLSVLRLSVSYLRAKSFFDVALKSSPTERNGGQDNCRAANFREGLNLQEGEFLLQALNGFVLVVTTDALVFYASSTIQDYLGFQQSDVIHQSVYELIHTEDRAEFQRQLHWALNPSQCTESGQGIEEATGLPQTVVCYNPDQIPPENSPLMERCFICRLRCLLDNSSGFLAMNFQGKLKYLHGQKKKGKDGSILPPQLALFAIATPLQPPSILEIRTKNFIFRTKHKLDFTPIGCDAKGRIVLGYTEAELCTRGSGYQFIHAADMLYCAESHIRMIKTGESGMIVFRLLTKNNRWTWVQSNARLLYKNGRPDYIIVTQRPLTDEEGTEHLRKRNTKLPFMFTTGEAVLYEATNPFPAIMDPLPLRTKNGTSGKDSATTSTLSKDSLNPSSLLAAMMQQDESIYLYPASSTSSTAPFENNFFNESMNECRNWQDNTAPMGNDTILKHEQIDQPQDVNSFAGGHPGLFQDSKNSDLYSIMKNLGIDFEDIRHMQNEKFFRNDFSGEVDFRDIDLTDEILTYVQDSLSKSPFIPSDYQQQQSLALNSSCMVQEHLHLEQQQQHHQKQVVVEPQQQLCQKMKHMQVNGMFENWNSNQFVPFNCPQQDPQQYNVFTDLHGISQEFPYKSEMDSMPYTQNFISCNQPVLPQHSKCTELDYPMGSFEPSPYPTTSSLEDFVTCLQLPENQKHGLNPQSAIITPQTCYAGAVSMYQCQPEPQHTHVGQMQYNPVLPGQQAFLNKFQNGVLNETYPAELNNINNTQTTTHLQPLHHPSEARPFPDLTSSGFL

[5] = system: MODE-K cells; assay: Surface CD1d loaded with α-GC (L363 antibody staining) in MODE-K cells; type: cell-based, mouse
Source text: In light of the decreased MTP expression observed in oxazolone treated IECs (FIG. 1B) and given that MTP loss alters the ability of CD1d to acquire exogenous antigens, such as α-GC, and CD1d elicited IL-10 responses by epithelial cells (Dougan et al. 2005, Dougan et al. 2007, Zeissig et al 2017, Sagiv et al. 2007, Brozovic et al. 2004, Olszak et al. 2014), it was investigated whether CD1d expression and lipid loading on oxazolone conditioned IECs.

[6] = system: C57Bl/6 mice; assay: Intra-rectal administration, colonic inflammation in vivo; parameters: species or system mouse
Experimental: It was tested whether a dietary sourced minimal oxazole structure was sufficient to induce intestinal inflammation in vivo. […] To confirm this, the ability of oxazolone skin pre-sensitization to affect the responses to rectal challenge with TMO and vice-versa (FIG. 9D).
Next, it was tested whether B17 microcin derivatives could induce intestinal inflammation in vivo. Therefore, adequate quantities of a minimal B17 derivative (termed frag-oz, FIG. 2D) were synthesized to perform in vivo experiments and challenged animals via intra-rectal administration. […] These studies identify an oxazole containing microbial mimic that promotes CD1d-dependent intestinal inflammation independent of its classical anti-microbial activity.
These studies reveal a novel role for epithelial derived AhR signals in promoting mucosal inflammation when exposed to OxC.

[7] = target: T2, aryl hydrocarbon receptor (AhR) (Mus musculus, UniProt P30561); assay: AhR firefly luciferase reporter in IECs; type: cell-based; conditions: compared to vehicle or 1,2,4-trimethylcyclopentane
T2 construct: IECs were transfected with an AhR firefly luciferase reporter; endogenous in cells; host or cells: MODE-K (mouse intestinal epithelial cell line)
T2 sequence (P30561 10-848): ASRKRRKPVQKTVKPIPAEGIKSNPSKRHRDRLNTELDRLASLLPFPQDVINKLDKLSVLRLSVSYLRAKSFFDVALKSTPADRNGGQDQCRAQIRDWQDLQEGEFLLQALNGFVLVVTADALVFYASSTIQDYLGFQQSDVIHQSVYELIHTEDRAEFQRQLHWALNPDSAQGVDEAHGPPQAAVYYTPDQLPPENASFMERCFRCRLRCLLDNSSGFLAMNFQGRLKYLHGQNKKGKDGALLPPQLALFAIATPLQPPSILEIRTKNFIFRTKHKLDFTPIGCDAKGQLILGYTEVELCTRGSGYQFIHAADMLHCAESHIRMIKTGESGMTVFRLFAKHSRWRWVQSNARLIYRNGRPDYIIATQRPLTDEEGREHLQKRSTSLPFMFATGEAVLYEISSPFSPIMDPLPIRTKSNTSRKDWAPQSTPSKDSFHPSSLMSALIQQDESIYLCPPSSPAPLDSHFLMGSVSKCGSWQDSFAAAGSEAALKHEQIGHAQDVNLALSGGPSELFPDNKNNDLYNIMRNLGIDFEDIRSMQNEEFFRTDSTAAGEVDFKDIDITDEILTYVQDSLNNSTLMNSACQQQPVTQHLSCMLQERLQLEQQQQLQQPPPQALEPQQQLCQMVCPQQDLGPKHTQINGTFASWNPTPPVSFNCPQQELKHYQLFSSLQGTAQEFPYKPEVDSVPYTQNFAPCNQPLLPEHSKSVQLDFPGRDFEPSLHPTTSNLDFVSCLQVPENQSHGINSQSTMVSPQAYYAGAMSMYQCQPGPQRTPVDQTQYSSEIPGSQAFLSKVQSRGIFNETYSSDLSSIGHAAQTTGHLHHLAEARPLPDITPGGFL

[8] = target: recombinant IDO1 (Homo sapiens, UniProt P14902); assay: Recombinant IDO1 conversion of L-tryptophan to formyl-kyneurenine; type: biochemical; conditions: compared to control (TMC) or vehicle
[9] = system: IECs; assay: LC-MS of deuterated L-trp (D5-Trp) metabolites in IEC lysates; type: cell-based; conditions: within 6 hours of exposure
Experimental: IDO1 is a rate-limiting enzyme involved in tryptophan catabolism that generates formyl-kyneurenine which can be further metabolized into a variety of AhR agonists (Higuchi and Hayaishi Arch Biochem Biophys 1967, Nguyen and Bradfield 2008, Zelante et al. 2014). […] To specifically identify these tryptophan derived products, IECs were cultured with deuterated L-trp (D5-Trp) and performed high performance liquid chromatography mass spectrometry (LC-MS) on lysates stimulated with oxazolone, TMO, frag-oz or TMC control (FIG. 5C). […] Taken together these latter studies are consistent with a model in which exposure of IECs to oxazole containing compounds leads to the activation of IDO1 and generation of tryptophan-derived metabolites that induce the AhR pathway to downregulate CD1d-restricted responses associated with the production of IL-10 (FIG. 6).

[10] = Wambaugh et al. 2014; cited from earlier work
[11] = system: primary hepatocytes; assay: IL-10 production from primary hepatocytes co-cultured with 24.7 iNKT hybridoma; conditions: response to iNKT cells in the presence of α-GC
[12] = supplement alone or in conjunction with TMC stimulation
[13] = MODE-K pre-conditioned with compound, loaded with α-GC, co-culture with 24.7 iNKT hybridoma
[14] = IEC enriched colonic fractions after intra-rectal administration
[15] = intra-rectal administration, wildtype

recombinant IDO1, sequence (P14902 whole entry, species assumed): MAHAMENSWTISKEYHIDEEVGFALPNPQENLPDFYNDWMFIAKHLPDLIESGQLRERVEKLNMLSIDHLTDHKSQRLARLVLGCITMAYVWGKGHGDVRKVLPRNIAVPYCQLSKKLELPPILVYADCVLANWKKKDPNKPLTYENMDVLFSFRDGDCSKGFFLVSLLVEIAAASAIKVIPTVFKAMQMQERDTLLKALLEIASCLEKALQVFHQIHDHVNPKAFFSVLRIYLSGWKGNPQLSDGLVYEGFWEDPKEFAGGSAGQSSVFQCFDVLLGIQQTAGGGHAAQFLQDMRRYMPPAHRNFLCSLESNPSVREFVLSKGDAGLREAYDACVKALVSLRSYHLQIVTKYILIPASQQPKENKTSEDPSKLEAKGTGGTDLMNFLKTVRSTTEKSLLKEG

In the case of `Cn1cc(C[C@@H](N)C(=O)O)c2ccccc21` (racemic) [DL-methyl tryptophan, reference compound], the “effect of the supplement on IEC responses to oxazolone (CD1d-restricted IL-10 production)” value [1] is reported as “did not restore suppression”.
With `N[C@@H](Cc1c[nH]c2ccccc12)C(=O)O` [L-Trp, L-tryptophan, reference compound] the “CD1d-restricted IL-10 production” value [1, 12] was “had no effect” and the “effect of the supplement on IEC responses to oxazolone (CD1d-restricted IL-10 production)” value [1] was “restored IEC responses to oxazolone”.
With `CC1=NCCC1` [1-MP, 2-methyl-1-pyrroline, reference compound] the Cyp1a1 transcripts [2] was “did not elicit any transcriptional changes” and the Mttp transcripts [2] was “did not elicit any transcriptional changes”.
For `O=C(O)c1cc(=O)c2ccccc2[nH]1` [kyneurenic acid, reference compound], the “CD1d-restricted IL-10 production” value [1, 12] was “had no effect”.
For `C=CC1(C)OC(=O)N(c2cc(Cl)cc(Cl)c2)C1=O` (stereo not shown) [vinclozolin], the Cyp1a1 transcripts [2] was “induced expression of these genes in vitro and in vivo”, the Ido1 transcripts [2] was “induced expression of these genes in vitro and in vivo” and the “transcriptional and CD1d-restricted epithelial responses relative to oxazolone stimulation” value [3] was “phenocopied”. The AhR activation [4] was “AhR activator”.
In the case of `CC1CC(C)C(C)C1` (stereo not shown) [TMC, 1,2,4-trimethyl cyclopentane, reference compound], the Cyp1a1 transcripts [2] is reported as “did not elicit any transcriptional changes” and the Mttp transcripts [2] is reported as “did not elicit any transcriptional changes”.
In the case of `CC1=NC(C)OC1C` (stereo not shown) [TMO, 2,4,5-trimethyl-2,5-dihydro-1,3-oxazole], the Ido1 transcripts [2] is reported as “induced expression of these genes in vitro and in vivo”, the Mttp transcripts [2] is reported as “suppressed” and the “compound induced inhibition of CD1d-restricted IL-10 production when AhR expression is silenced” value ([1]; AhR siRNA, IEC:iNKT cell co-cultures) is reported as “reversed”. For the same compound, the “CD1d-restricted IL-10 production” value ([1]; IECs cultured in tryptophan-deficient media) was “no longer attenuated”, the “CD1d-restricted IL-10 production” value [1, 13] was “limited” and the IL-10 production ([1]; tryptophan-deficient conditions supplemented with kyneurenic acid) was “decreased IL-10 production”. For the same compound, the “decrease of IL-10 production when AhR was silenced” value ([1]; tryptophan-deficient conditions supplemented with kyneurenic acid, AhR siRNA) was “reduced when AhR was silenced”, the “CD1d-restricted IL-10 production” value ([1]; tryptophan-deficient media supplemented with exogenous L-tryptophan) was “attenuation of CD1d-restricted IL-10 production” and the “compound induced reduction of cell surface CD1d lipid antigen loading when AhR expression is silenced” value ([5]; AhR siRNA) was “reversed”. For the same compound, the “loading of α-GC on CD1d at the cell surface (L363 staining)” value ([5]; MODE-K cells conditioned with compound) was “decreased cell surface staining”, the “Cyp1a1 transcripts in IEC in vivo” value [6, 14] was “induction of cyp1a1” and the “Mttp transcripts in IEC in vivo” value [6, 14] was “downregulation of Mttp”. The “Th1 and Th2 cytokines (IL-13, IFN-γ) from colon explants” value [6, 15] was “production of Th2 and Th1 cytokines including IL-13 and IFN-γ”, the colon length [6, 15] was “colon shortening” and the “histological pathology of the colon” value [6, 15] was “histological pathology characterized by superficial inflammation of the gut wall, neutrophil accumulation and ulceration of the epithelial layer of the colon”. For the same compound, the weight loss [6, 15] was “increased weight loss”, the “clinical symptoms, pathology, inflammation in CD1d-deficient animals” value ([6]; intra-rectal challenge, CD1d-deficient (KO) vs WT) was “no evidence of clinical symptoms or pathology” and the “effect of skin pre-sensitization with the other compound (oxazolone or TMO) on rectal responses” value ([6]; topical sensitization followed by intra-rectal challenge) was “did not affect”. For the same compound, the AhR transcriptional activity [7] was “induced robust AhR transcriptional activity”, the “ability of IDO1 to convert tryptophan to formyl-kyneurenine” value [8] was “enhanced” and the “metabolite that D5-Trp was further metabolized to upon stimulation” value [9] was “xanthurenic acid”. The “detection in human urine” value [10] was “detected in human urine” and the “compound induced inhibition of IL-10 production in hepatocytes from Ahr−/− mice” value [11] was “resistance”.
In the case of `COC(=O)c1csc(C(=O)c2c[nH]c3ccccc23)n1` [ITE, 2-(H-Indol-3-carbonyl)-4-thiazolecarboxylic acid methyl ester, reference compound], the Mttp transcripts [2] is reported as “did not modulate” and the “CD1d-restricted IL-10 production” value [1, 13] is reported as “did not modulate”.
